Laboratory results taken from paper PMC3574204 (Bioorganic & medicinal chemistry, 2013).

What was measured:
EGFR = EGFR (Homo sapiens, UniProt P00533); experiment: Phosphotyrosine ELISA cytoblot, EGFR inhibition in A431 cells; conditions: for EGFR inhibition improved, fold compared to the corresponding 2-amino analog: 14 vs 8, 15 vs 9, 17 vs 11
[1] = test system: B16-F10 mouse melanoma tumors; experiment: B16-F10 syngeneic tumor model; type: in vivo, athymic NCr nu/nu male mice; conditions: 10 mg/kg IP twice weekly
VEGFR-2 = VEGFR-2 (Homo sapiens, UniProt P35968); experiment: Phosphotyrosine ELISA cytoblot, VEGFR-2
VEGFR-2, sequence (P35968 20-1356): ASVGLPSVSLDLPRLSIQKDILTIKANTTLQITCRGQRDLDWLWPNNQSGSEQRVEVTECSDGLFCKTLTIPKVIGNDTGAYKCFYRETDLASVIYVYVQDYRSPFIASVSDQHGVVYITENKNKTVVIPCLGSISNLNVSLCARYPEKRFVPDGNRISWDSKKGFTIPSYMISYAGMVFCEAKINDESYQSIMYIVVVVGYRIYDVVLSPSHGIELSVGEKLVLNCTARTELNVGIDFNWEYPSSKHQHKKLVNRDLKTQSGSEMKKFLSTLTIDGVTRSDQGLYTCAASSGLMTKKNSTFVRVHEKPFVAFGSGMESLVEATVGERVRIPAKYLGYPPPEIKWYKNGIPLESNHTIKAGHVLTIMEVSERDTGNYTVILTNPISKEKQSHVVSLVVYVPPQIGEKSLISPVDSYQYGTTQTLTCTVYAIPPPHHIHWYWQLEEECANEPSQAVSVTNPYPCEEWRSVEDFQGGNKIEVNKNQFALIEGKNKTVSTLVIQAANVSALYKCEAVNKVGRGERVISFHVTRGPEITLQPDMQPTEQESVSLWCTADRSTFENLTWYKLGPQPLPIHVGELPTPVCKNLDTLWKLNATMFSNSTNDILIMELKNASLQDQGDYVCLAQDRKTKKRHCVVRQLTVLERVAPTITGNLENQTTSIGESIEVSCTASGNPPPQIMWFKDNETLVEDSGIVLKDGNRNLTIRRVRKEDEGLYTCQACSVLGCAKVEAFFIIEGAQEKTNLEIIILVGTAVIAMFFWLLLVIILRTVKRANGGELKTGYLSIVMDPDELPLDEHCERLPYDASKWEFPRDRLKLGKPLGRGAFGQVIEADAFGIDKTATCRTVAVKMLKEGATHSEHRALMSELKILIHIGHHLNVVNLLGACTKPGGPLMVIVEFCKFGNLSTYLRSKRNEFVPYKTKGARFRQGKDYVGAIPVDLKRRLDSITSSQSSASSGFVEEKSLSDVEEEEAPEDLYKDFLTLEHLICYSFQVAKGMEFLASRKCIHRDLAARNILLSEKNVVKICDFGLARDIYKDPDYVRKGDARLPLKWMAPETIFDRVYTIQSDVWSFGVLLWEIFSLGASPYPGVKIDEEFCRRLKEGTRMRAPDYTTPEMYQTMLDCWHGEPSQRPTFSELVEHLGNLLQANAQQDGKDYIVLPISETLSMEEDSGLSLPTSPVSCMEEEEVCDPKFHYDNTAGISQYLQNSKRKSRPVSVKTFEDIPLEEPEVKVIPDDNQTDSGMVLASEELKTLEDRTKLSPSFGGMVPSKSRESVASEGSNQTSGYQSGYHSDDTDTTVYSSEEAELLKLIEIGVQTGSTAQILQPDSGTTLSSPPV

[2] = test system: chicken embryo chorioallantoic membrane (CAM); experiment: CAM assay of angiogenesis; conditions: in vivo
[3] = Whole animal toxicity assay; type: in vivo

EGFR, sequence (P00533 25-1210): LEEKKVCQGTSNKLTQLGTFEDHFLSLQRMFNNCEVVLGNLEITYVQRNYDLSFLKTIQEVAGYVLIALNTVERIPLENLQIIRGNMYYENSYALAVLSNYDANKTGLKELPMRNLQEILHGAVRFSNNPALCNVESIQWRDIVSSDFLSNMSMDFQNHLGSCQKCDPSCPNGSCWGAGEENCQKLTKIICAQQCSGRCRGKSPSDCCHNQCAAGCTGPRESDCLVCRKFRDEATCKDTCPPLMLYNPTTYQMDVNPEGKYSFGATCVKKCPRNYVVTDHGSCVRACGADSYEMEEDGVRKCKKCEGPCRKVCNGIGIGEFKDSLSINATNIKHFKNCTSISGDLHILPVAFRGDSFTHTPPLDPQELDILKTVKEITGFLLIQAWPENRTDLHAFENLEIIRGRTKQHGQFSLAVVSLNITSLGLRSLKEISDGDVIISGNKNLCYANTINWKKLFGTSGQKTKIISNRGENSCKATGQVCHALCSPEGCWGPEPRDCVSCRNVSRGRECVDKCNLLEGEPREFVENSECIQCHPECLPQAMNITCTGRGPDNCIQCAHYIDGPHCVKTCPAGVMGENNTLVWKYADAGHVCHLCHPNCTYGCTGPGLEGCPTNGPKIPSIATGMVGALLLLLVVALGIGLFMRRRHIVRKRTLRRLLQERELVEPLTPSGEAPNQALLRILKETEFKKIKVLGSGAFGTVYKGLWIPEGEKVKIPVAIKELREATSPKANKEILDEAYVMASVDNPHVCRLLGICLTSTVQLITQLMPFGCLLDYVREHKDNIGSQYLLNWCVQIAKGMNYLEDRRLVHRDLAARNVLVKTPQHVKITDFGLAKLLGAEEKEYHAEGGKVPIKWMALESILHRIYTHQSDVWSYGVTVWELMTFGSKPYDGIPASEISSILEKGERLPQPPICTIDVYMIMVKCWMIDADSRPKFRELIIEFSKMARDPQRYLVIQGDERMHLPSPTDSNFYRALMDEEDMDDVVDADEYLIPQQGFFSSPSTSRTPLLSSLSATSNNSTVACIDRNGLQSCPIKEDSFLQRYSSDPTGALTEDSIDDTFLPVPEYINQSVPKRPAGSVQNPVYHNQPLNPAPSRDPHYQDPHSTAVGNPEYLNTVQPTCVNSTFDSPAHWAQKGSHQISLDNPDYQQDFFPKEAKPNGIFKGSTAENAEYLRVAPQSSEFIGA

CC(C)(C)C(=O)Nc1nc(Nc2ccc(F)c(Cl)c2)c2cc(CCc3ccccn3)[nH]c2n1 [Compound 15, N-{4-[(3-chloro,4-fluorophenyl)amino]-6-(2-pyridin-2-yl-ethyl)-7H-pyrrolo[2,3-d]pyrimidin-2-yl}-2,2-dimethylpropanamide]
EGFR inhibition improved, fold compared to the corresponding 2-amino analog (EGFR): 6.5 fold

CN(Cc1cnc2nc(N)nc(N)c2n1)c1ccc(C(=O)N[C@@H](CCC(=O)O)C(=O)O)cc1 [MTX, methotrexate]
B16-F10 primary tumor growth [1]: slightly better at inhibiting primary tumor growth as compared to 8
decrease in vascular density of B16-F10 tumors ([1]; compared to solvent treated animals): statistically significant
tumor volume ([1]; compared to untreated animals): significantly less increase in tumor volume

C#Cc1cccc(Nc2nc(NC(=O)C(C)(C)C)nc3[nH]c(CCc4ccccn4)cc23)c1 [Compound 16, N-{4-[(3-ethynylphenyl)amino]-6-(2-pyridin-2-yl-ethyl)-7H-pyrrolo[2,3-d]pyrimidin-2-yl}-2,2-dimethylpropanamide]
EGFR inhibitory assay, result in words (EGFR): inactive

Nc1nc(Nc2ccc(F)c(Br)c2)c2cc(CCc3ccccn3)[nH]c2n1 [Compound 8, N^4-(3-bromo,4-fluorophenyl)-6-(2-pyridin-2-yl-ethyl)-7H-pyrrolo[2,3-d]pyrimidine-2,4-diamine]
VEGFR-2 inhibition, fold improvement in activity compared to 7 (VEGFR-2): 2 fold
CAM angiogenesis assay, fold better than semaxanib (27) [2]: 1.2 fold
weight loss ([3]; 7.5 or 10 mg/kg twice weekly, compared to untreated): no weight loss
weight loss ([3]; 20, 17, and 15 mg/kg twice weekly, 6 week time point): significant

CC(C)(C)C(=O)Nc1nc(Nc2cccc(C(F)(F)F)c2)c2cc(CCc3ccccn3)[nH]c2n1 [Compound 17, N-{4-[(3-trifluoromethylphenyl)amino]-6-(2-pyridin-2-yl-ethyl)-7H-pyrrolo[2,3-d]pyrimidin-2-yl}-2,2-dimethylpropanamide]
EGFR inhibition improved, fold compared to the corresponding 2-amino analog (EGFR): 1.4 fold

CC(C)(C)C(=O)Nc1nc(Nc2ccc(F)c(Br)c2)c2cc(CCc3ccccn3)[nH]c2n1 [Compound 14, N-{4-[(3-bromo,4-fluorophenyl)amino]-6-(2-pyridin-2-yl-ethyl)-7H-pyrrolo[2,3-d]pyrimidin-2-yl}the-2,2-dimethylpropanamide]
EGFR inhibition improved, fold compared to the corresponding 2-amino analog (EGFR): 16 fold

CC(C)(C)C(=O)Nc1nc(Nc2ccc(F)c(C(F)(F)F)c2)c2cc(CCc3ccccn3)[nH]c2n1 [Compound 18, N-{4-[(3-trifluoromethyl,4-fluorophenyl)amino]-6-(2-pyridin-2-yl-ethyl)-7H-pyrrolo[2,3-d]pyrimidin-2-yl}-2,2-dimethylpropanamide]
EGFR inhibition, fold less active than 12 (EGFR): 1.7 fold
